In US20030207819A1, “Compositions and methods for treating inflammatory connective tissue diseases” (priority 2002, published 2003):

What was measured:
[1] = system: patient with undifferentiated connective tissue disease; experiment: Example 1: clinical observation of patient on clarithromycin; type: in vivo, human; conditions: person
From the text: We elected to continue them on this antibiotic. […] Because the patient was on Lodine (NSAID) at the same time, we elected to see if they could stop the Lodine and still have relief of symptoms.

[2] = system: patient with undifferentiated connective tissue disease; experiment: Example 2: clarithromycin re-challenge of Example 1 patient, symptoms and laboratory assessments; type: in vivo, human
Procedure: Subsequent to the observations made in Example 1, the patient was re-challenged with clarithromycin, and re-evaluated as to symptomatic efficiency. In parallel with clinical observations, laboratory assessments including erythrocyte sedimentation rate, C-reactive protein, and serum interleukins 1 and 6 were measured. The laboratory results are illustrated in Table 1.
On Jul. 29, 2002 the clarithromycin treatment of the patient from Example 1 was discontinued (Table 1). Their additional medications included: ZESTRIL® (Astra Zenica) at 1 mg/t.i.d., CALTRATE® with Vitamin D (Wyeth)/b.i.d., UNITHROID™ (Jerome Stevens Pharmaceuticals, Inc.) at 0.05 mg/day, TROZODONE® (Watson Laboratories, Inc.) at 50 mg/h.s., TYLENOL® (McNeil Consumer Brands) at 1 gm/p.r.n., multi-vitamins/p.r.n., iron tablets, quinine at 260 mg, and non-specific herbs. […] When the patient was observed on Aug. […] The symptoms were sufficiently severe that they asked to be restarted on clarithromycin. When observed on Aug. 15, 2002, they stated they had become “100% better” by Aug. 11, 2002. The patient was continued on clarithromycin at 500 mg b.i.d. and observed serially at weekly intervals on Aug. 22, 2002, Aug. 27, 2002, and Sep. 5, 2002.
These findings are similar to their clinical history over the past several years with respect to clarithromycin therapy and response of connective tissue symptoms.

[3] = Aug. 8, 2002, 10 days off clarithromycin
[4] = Aug. 15, 2002, clarithromycin restarted
[5] = Aug. 22, 2002, on clarithromycin
[6] = Aug. 27, 2002, on clarithromycin
[7] = Jul. 29, 2002, on clarithromycin 500 mg BID
[8] = Sep. 5, 2002, on clarithromycin

## CC[C@H]1OC(=O)[C@H](C)[C@@H](O[C@H]2C[C@@](C)(OC)[C@@H](O)[C@H](C)O2)[C@H](C)[C@@H](O[C@@H]2O[C@H](C)C[C@H](N(C)C)[C@H]2O)[C@](C)(OC)C[C@@H](C)C(=O)[C@H](C)[C@@H](O)[C@]1(C)O [clarithromycin, 6-O-methylerythromycin]
[1]; back on 500 mg/bid after 250 mg/bid
  Symptoms: improved essentially completely
[1]; clarithromycin 500 mg b.i.d. begun December 1998
  symptoms with respect to connective tissue changes: significantly improved
[1]; dose reduced to 250 mg/bid
  Symptoms: symptoms returned
[1]; last seen Feb. 12, 2002, continued clarithromycin
  undifferentiated connective disease status: under control
[1]; reduced dose of 750 mg/day
  joint symptoms: increased swelling of the hands, painful wrists, knee swelling and hand stiffness
[2]; [3]
  ESR: 25 mm/hr
  IL-6: 2.1 pg/mL
  Symptoms: generalized joint pain, associated with swelling
[2]; Aug. 15, 2002, clarithromycin 500 mg b.i.d. restarted, better on Aug. 11, 2002
  Symptoms: 100% better
[2]; [4]
  CPR: <0.3 mg/dL
  ESR: 21 mm/hr
  IL-6: 0.9 pg/mL
[2]; [5]
  CPR: <0.3 mg/dL
  ESR: 34 mm/hr
  IL-6: 0.7 pg/mL
[2]; Aug. 22, 2002, on clarithromycin 500 mg b.i.d.
  Symptoms: Doing well
[2]; [6]
  CPR: <0.3 mg/dL
  ESR: 21 mm/hr
  IL-6: 1.1 pg/mL
[2]; Aug. 27, 2002, on clarithromycin 500 mg b.i.d.
  Symptoms: Doing well
[2]; [7]
  CPR: <0.3 mg/dL
  ESR: 29 mm/hr
[2]; Jul. 29, 2002, on clarithromycin 500 mg po BID, discontinued at this visit
  Symptoms: Good Control
[2]; [8]
  CPR: <0.3 mg/dL
  ESR: 34 mm/hr
  IL-6: 1 pg/mL
[2]; Sep. 5, 2002, on clarithromycin 500 mg b.i.d.
  Symptoms: Doing well
[2]; over the re-challenge Jul. 29 to Sep. 5, 2002
  change in ESR, CRP, Interleukin-1, or Interleukin-6: no significant change
